Measurements published in patent US11077214B2, “Multimodal CT/optical agents” (University Health Network, priority 2013, dated 2021).

Assay: In vitro photostability of ICG fluorescence at room temperature
Type: physicochemical
Conditions: 3 days at room temperature
Experimental: The size of the liposome samples was measured using dynamic light scattering (DLS) (90Plus, Brookhaven, Holtsville, N.Y.). The iodine and ICG concentrations were determined using an absorbance assay at a wavelength of 245 nm for iodine and 785 nm for ICG (Cary 50 UV/VIS Spectrophotometer, Varian Inc., Palo Alto, Calif.). The lipid components of the liposome sample was analyzed using ultra performance liquid chromatography (UPLC, ACQUITY, Waters, Milford, Mass.) equipped with an evaporative light scattering detector (ELSD). The in vitro fluorescence measurements were performed using a 2D fluorescence imager (excitation/emission: 735/820 nm, CRI Maestro, Perkin Elmer, Waltham, Mass.).
Free ICG diluted in water, a 1:10 ethanol/water mixture and a 0.5:10 iohexol/water mixture yielded only 8±2%, 3±1%, 7±2% of its original fluorescence, respectively. […] The photostability of the encapsulated ICG was investigated by incubating the liposome samples and the free ICG solutions (at 7 physiologically relevant concentrations ranging from 0.5 to 2.5 μg/mL) at room temperature over a 21-day period.

- retained original fluorescence signal (diluted in 0.5:10 iohexol/water mixture): 7±2%
- retained original fluorescence signal (diluted in 1:10 ethanol/water mixture): 3±1%
- retained original fluorescence signal (diluted in water): 8±2%
SMILES: CC1(C)C(/C=C/C=C/C=C/C=C2\N(CCCCS(=O)(=O)O)c3ccc4ccccc4c3C2(C)C)=[N+](CCCCS(=O)(=O)[O-])c2ccc3ccccc3c21 [Free ICG, indocyanine green]
